# “And” between values parts separate entries of the source, which are not always exact repeats. Equal values may be shown once. Read-outs that look alike come from different tables or passages of the source.
# Columns and labels:
# [1] = human, in vivo
# Experimental: (§1) All eligible subjects were assigned according to the random table generated by SAS 9.4 and took the test (T) and reference(R) drugs respectively with 240 ml water after an overnight fast of at least 10 h (fasting study) or after the high-fat breakfast within half an hour before dosing (fed study). […] Subjects were forbidden to drink water within 1 h before and after taking the drug, and the lunch and dinner were provided at 4 h and 8 h respectively post-drug administration. No other food and beverage intake was permitted except the provided diets. […] 4 ml venous blood samples were collected before drug administration and at 1,2,3,4,5,6,7,8,9,10,11,12,13,24,36,48,72,96,144,168 h after administration. The samples were centrifuged at 1700gear per minute for 10 min at 4℃ to separate the plasma, which was divided into two aliquots (drug monitoring at least 800ul and backup) and stored at - 80℃until analysis.
# (§2) The lower limit of quantification (LLOQ) was 0.500 ng/mL and the assay dynamic range was 0.500-100 ng/mL.
# (§3) Under multiple reaction monitoring, LC–MS/MS system adopts positive ionization mode.
# (§4) Data collection and analysis was performed with Analyst 1.6.3 software (Sciex, Canada) and Watson LIMS (Thermo, USA). Calibration curves were constructed using linear regression equation obtained by the weighted (W = 1/X2) least square method fitting for both analytes. Quantitation of quality control and clinical samples were also performed by the Analyst software using the same mathematical algorithm as that used in the calibration of standard curves.
# (§5) For the purpose of bioequivalence analysis, the maximum observed concentration (Cmax), the area under the plasma concentration–time curve from time 0 to the last measured time point (AUC0-t), and the area under the plasma concentration–time curve from time 0 to infinity (AUC0-∞) were considered as primary PK parameters. The secondary PK parameters were the observed time to Cmax (Tmax) and the apparent terminal half-life (T1/2). Cmax and Tmax were the factually measured data and AUC0-t was calculated using the linear and logarithmic trapezoidal methods. AUC0-∞ was calculated according to the following formula: AUC0-∞ = AUC0-t + Clast/λz (Clast is the last measurable concentration and is the first order rate constant of terminal elimination determined from a linear regression line after logarithmic transformation at the end of concentration time curve. λz is the slope calculated by linear regression after logarithmic conversion at the end of the concentration–time curve). T1/2 was calculated to be ln2/λ.
# (§6) Statistical analysis was performed by SAS 9.4. Demographic characteristics, safety parameters and pharmacokinetic data were summarized using descriptive statistics, the results were presented as the mean ± SD and the differences between groups were determined by two one-sided tests. […] AUC and Cmax were logarithmically transformed and analyzed by linear mixed effect model. Sequence, period and formulation were fixed effects, and subject within sequence was included as a random effect. Analysis of variance (ANOVA) of cross-over design was performed on the log-transformed variables. […] Bioequivalence was assessed separately in both the fasting and fed groups.
# [2] = test system: blood pressure; conditions: after oral administration; cited from earlier work
# [3] = clinical; conditions: human, plasma, po
# Experimental: as §1, §2, §3, §4, §5, §6
# [4] = lisinopril; cited from earlier work
# [5] = Single-dose two-period crossover bioequivalence study, fed (high-fat breakfast): plasma pharmacokinetics of lisinopril and amlodipine (LC-MS/MS, NCA); conditions: for concentration at 3 h / concentration at 10 h / concentration at 6 h / concentration at 5 h / concentration at 7 h / concentration at 8 h / concentration at 11 h / concentration at 12 h / concentration at 0 h / concentration at 1 h / concentration at 2 h / concentration at 4 h / concentration at 9 h / concentration at 13 h / concentration at 24 h / concentration at 36 h / concentration at 48 h / concentration at 72 h / concentration at 96 h / concentration at 144 h / concentration at 168 h: human, po, Plasma concentration of lisinopril; for concentration at 3 h: nominal time 3 h; for concentration at 3 h / concentration at 10 h / concentration at 6 h / concentration at 5 h / concentration at 7 h / concentration at 8 h / concentration at 11 h / concentration at 12 h / concentration at 0 h / concentration at 1 h / concentration at 2 h / concentration at 4 h / concentration at 9 h / concentration at 13 h / concentration at 24 h / concentration at 36 h / concentration at 48 h / concentration at 72 h / concentration at 96 h / concentration at 144 h / concentration at 168 h / Plasma concentration of lisinopril: reference (R) tablets; for concentration at 10 h: nominal time 10 h; for concentration at 6 h: nominal time 6 h; for concentration at 5 h: nominal time 5 h; for concentration at 7 h: nominal time 7 h; for concentration at 11 h: nominal time 11 h; for concentration at 12 h: nominal time 12 h; for concentration at 0 h: nominal time 0 h; for concentration at 2 h: nominal time 2 h; for concentration at 4 h: nominal time 4 h; for concentration at 9 h: nominal time 9 h; for concentration at 13 h: nominal time 13 h; for concentration at 24 h: nominal time 24 h; for concentration at 36 h: nominal time 36 h; for concentration at 48 h: nominal time 48 h; for concentration at 72 h: nominal time 72 h; for concentration at 96 h: nominal time 96 h; for Plasma concentration of lisinopril: oral, listed as LSN;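 on Plasma concentration of lisinopril: single tablet dose 10 mg/5 mg fixed combination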
# Experimental: as §1, §2, §3, §4, §5, §6
# [6] = plasma, Max, maximum among subjects
# [7] = plasma, Mean, mean of 37 subjects
# [8] = plasma, Min, minimum among subjects
# [9] = lisinopril, intra-subject coefficient of variation
compound,measurement,setting,value
NCCCC[C@H](N[C@@H](CCc1ccccc1)C(=O)O)C(=O)N1CCC[C@H]1C(=O)O [lisinopril],Intra-CV (%) of AUC0-t,[1],19.3%
same,Intra-CV (%) of AUC0-∞,[1],17.0%
same,Intra-CV (%) of Cmax,[1],24.3%
same,Time to appearance of antihypertensive effect,[2],≤ 1 h
same,Time to peak antihypertensive effect,[2],about 6 h
same,concentration at 0 h,[3],0.517 ng/mL
same,Decrease of AUC0-24 by concomitant EGCG-concentrated green tea extract,[4],69%
same,Decrease of AUC0-∞ by concomitant EGCG-concentrated green tea extract,[4],67%
same,Decrease of Cmax by concomitant EGCG-concentrated green tea extract,[4],71%
same,Mean fecal recovery of intact drug,[4],69%
same,concentration at 3 h,"[5]; in vivo, Max, maximum among subjects",22.4 ng/mL
same,concentration at 10 h,"[5]; in vivo, Mean, mean of 36 subjects",12.9 ng/mL
same,concentration at 6 h,"[5]; in vivo, Mean, mean of 37 subjects",13.3 ng/mL
same,concentration at 3 h,"[5]; in vivo, individual subjects",22.4 ng/mL
same,concentration at 5 h,"[5]; in vivo, individual subjects",12.9 ng/mL
same,concentration at 6 h,"[5]; in vivo, individual subjects",22.4 ng/mL
same,concentration at 7 h,"[5]; in vivo, individual subjects",22.4 ng/mL
same,concentration at 8 h,"[5]; in vivo, individual subjects, nominal time 8 h",22.4 ng/mL
same,concentration at 11 h,"[5]; in vivo, individual subjects",12.9 ng/mL
same,concentration at 12 h,"[5]; in vivo, individual subjects",13.3 ng/mL
same,concentration at 0 h,[5]; [6],0.532 ng/mL
same,concentration at 1 h,"[5]; plasma, Max, maximum among subjects, nominal time 1 h",3.22 ng/mL
same,concentration at 2 h,[5]; [6],12 ng/mL
same,concentration at 4 h,[5]; [6],29.2 ng/mL
same,concentration at 5 h,[5]; [6],29.7 ng/mL
same,concentration at 6 h,[5]; [6],29.5 ng/mL
same,concentration at 7 h,[5]; [6],29.8 ng/mL
same,concentration at 8 h,"[5]; plasma, Max, maximum among subjects, nominal time 8 h",27.4 ng/mL
same,concentration at 9 h,[5]; [6],27.1 ng/mL
same,concentration at 10 h,[5]; [6],24.1 ng/mL
same,concentration at 11 h,[5]; [6],21.9 ng/mL
same,concentration at 12 h,[5]; [6],20.8 ng/mL
same,concentration at 13 h,[5]; [6],19 ng/mL
same,concentration at 24 h,[5]; [6],8.44 ng/mL
same,concentration at 36 h,[5]; [6],3.64 ng/mL
same,concentration at 48 h,[5]; [6],3.23 ng/mL
same,concentration at 72 h,[5]; [6],2.87 ng/mL
same,concentration at 96 h,[5]; [6],2.72 ng/mL
same,concentration at 144 h,"[5]; plasma, Max, maximum among subjects, nominal time 144 h",2.07 ng/mL
same,concentration at 168 h,"[5]; plasma, Max, maximum among subjects, nominal time 168 h",1.66 ng/mL
same,concentration at 0 h,[5]; [7],0.0284 ng/mL
same,concentration at 1 h,"[5]; plasma, Mean, mean of 37 subjects, nominal time 1 h",0.795 ng/mL
same,concentration at 2 h,[5]; [7],2.85 ng/mL
same,concentration at 3 h,[5]; [7],5.92 ng/mL
same,concentration at 4 h,[5]; [7],9.3 ng/mL
same,concentration at 5 h,[5]; [7],11.9 ng/mL
same,concentration at 7 h,[5]; [7],13.9 ng/mL
same,concentration at 8 h,"[5]; plasma, Mean, mean of 37 subjects, nominal time 8 h",14 ng/mL
same,concentration at 9 h,[5]; [7],13.5 ng/mL
same,concentration at 11 h,[5]; [7],12 ng/mL
same,concentration at 12 h,[5]; [7],10.8 ng/mL
same,concentration at 13 h,[5]; [7],9.81 ng/mL
same,concentration at 24 h,[5]; [7],4.32 ng/mL
same,concentration at 36 h,[5]; [7],2.32 ng/mL
same,concentration at 48 h,[5]; [7],1.88 ng/mL
same,concentration at 72 h,[5]; [7],1.46 ng/mL
same,concentration at 96 h,[5]; [7],1.21 ng/mL
same,concentration at 144 h,"[5]; plasma, Mean, mean of 37 subjects, nominal time 144 h",0.741 ng/mL
same,concentration at 168 h,"[5]; plasma, Mean, mean of 37 subjects, nominal time 168 h",0.639 ng/mL
same,concentration at 0 h,[5]; [8],0 ng/mL
same,concentration at 1 h,"[5]; plasma, Min, minimum among subjects, nominal time 1 h",0 ng/mL
same,concentration at 2 h,[5]; [8],0 ng/mL
same,concentration at 3 h,[5]; [8],0.89 ng/mL
same,concentration at 4 h,[5]; [8],1.37 ng/mL
same,concentration at 5 h,[5]; [8],2.12 ng/mL
same,concentration at 6 h,[5]; [8],3.02 ng/mL
same,concentration at 7 h,[5]; [8],3.34 ng/mL
same,concentration at 8 h,"[5]; plasma, Min, minimum among subjects, nominal time 8 h",3.75 ng/mL
same,concentration at 9 h,[5]; [8],4.2 ng/mL
same,concentration at 10 h,[5]; [8],4.09 ng/mL
same,concentration at 11 h,[5]; [8],3.97 ng/mL
same,concentration at 12 h,[5]; [8],3.57 ng/mL
same,concentration at 13 h,[5]; [8],3.73 ng/mL
same,concentration at 24 h,[5]; [8],2.31 ng/mL
same,concentration at 36 h,[5]; [8],1.27 ng/mL
same,concentration at 48 h,[5]; [8],0.976 ng/mL
same,concentration at 72 h,[5]; [8],0.736 ng/mL
same,concentration at 96 h,[5]; [8],0.564 ng/mL
same,concentration at 144 h,"[5]; plasma, Min, minimum among subjects, nominal time 144 h",0 ng/mL
same,concentration at 168 h,"[5]; plasma, Min, minimum among subjects, nominal time 168 h",0 ng/mL
same,Plasma concentration of lisinopril,"[5]; individual subjects, nominal time 1 h",0.899 ng/mL and 0.567 ng/mL and 0.719 ng/mL and 1.48 ng/mL and 3.22 ng/mL and 1.13 ng/mL and 0.941 ng/mL and 3.14 ng/mL and 0.842 ng/mL and 1.25 ng/mL and 0.826 ng/mL and 0.793 ng/mL and 1.55 ng/mL and 0.556 ng/mL and 0.744 ng/mL and 1.26 ng/mL and 1.43 ng/mL and 0.747 ng/mL and 1.81 ng/mL and 0.710 ng/mL and 0.799 ng/mL and 0.831 ng/mL and 2.32 ng/mL
same,Plasma concentration of lisinopril,"[5]; individual subjects, nominal time 8 h",13.3 ng/mL
same,Plasma concentration of lisinopril,"[5]; individual subjects, nominal time 144 h",1.05 ng/mL and 0.866 ng/mL and 2.07 ng/mL and 0.911 ng/mL and 0.569 ng/mL and 0.775 ng/mL and 0.691 ng/mL and 0.777 ng/mL and 0.834 ng/mL and 0.868 ng/mL and 0.514 ng/mL and 0.885 ng/mL and 0.919 ng/mL and 1.07 ng/mL and 1.00 ng/mL and 1.32 ng/mL and 0.715 ng/mL and 0.954 ng/mL and 1.83 ng/mL and 0.661 ng/mL and 0.869 ng/mL and 0.760 ng/mL and 0.582 ng/mL and 0.969 ng/mL and 0.992 ng/mL and 0.736 ng/mL and 0.576 ng/mL and 1.56 ng/mL and 1.10 ng/mL
same,Plasma concentration of lisinopril,"[5]; individual subjects, nominal time 168 h",0.904 ng/mL and 0.689 ng/mL and 1.66 ng/mL and 0.780 ng/mL and 0.534 ng/mL and 0.708 ng/mL and 0.504 ng/mL and 0.629 ng/mL and 0.750 ng/mL and 0.711 ng/mL and 0.787 ng/mL and 0.832 ng/mL and 0.987 ng/mL and 0.890 ng/mL and 1.20 ng/mL and 0.696 ng/mL and 0.773 ng/mL and 0.528 ng/mL and 1.38 ng/mL and 0.522 ng/mL and 0.761 ng/mL and 0.659 ng/mL and 0.502 ng/mL and 0.849 ng/mL and 0.785 ng/mL and 0.620 ng/mL and 0.572 ng/mL and 1.04 ng/mL
same,Intra-CV (%) of AUC0-t,[5]; [9],13.3%
same,Intra-CV (%) of AUC0-∞,[5]; [9],12.9%
same,Intra-CV (%) of Cmax,[5]; [9],22.4%
